{
  "source": "patent US20020142287A1",
  "about": "“High throughput assay to detect inhibitors of the map kinase pathway” (priority 2000, published 2002)",
  "key": {"[1]": {"system": "SNB-19 glioma cells", "conditions": "data not shown"}, "[2]": {"system": "p42/p44 ERK/MAPK proteins", "conditions": "50 μM U0126, SNB-19 cells", "procedure": "Quiescent SNB-19 cells were plated into fresh growth media and incubated for 0.5, 1, 2, 3, 4, 6, and 8 hr, and the cells were harvested for Northern analysis (FIG. 10A-10C) and Western blot analysis (FIG. 10D)."}, "[3]": {"system": "MEK/MAPK Kinase (MAPKK)", "conditions": "cited from earlier work"}, "[4]": {"system": "SNB-19 cells", "assay": "Growth-stimulated induction of c-fos and invasion-associated mRNA in quiescent cells plated into fresh growth media, Northern analysis", "assay_type": "cell-based, human", "conditions": "for effect on expression of uPA, GnT-V and c-ets-1 mRNA induced by growth stimulation: 2 and 6 hr after plating into fresh growth media", "procedure": "(§1) Procedure for Northern Blot. Surgical specimens were immediately frozen in liquid nitrogen upon resection. Total RNA was isolated from clinical glioma specimens and cultured brain tumor cells using guanidium isothiocyanate followed by […] centrifugation. 10-20 μg of total RNA per tumor cell line per lane were electrophoresed in an agarose-formaldehyde gel and transferred to Duralon nylon membranes (Stratagene, La Jolla, Calif.). After UV cross-linking, the blots were hybridized with a ^32P-radiolabeled cDNA probe synthesized by using a random priming kit (Stratagene, La Jolla, Calif.) and ExpressHyb solution (Clontech, Palo Alto, Calif.). The blots were then exposed to X-OMAT film (Kodak, Rochester, N.Y.) and the films were developed appropriately.\nModulators of the MAPK pathway also modulated the growth-stimulated mRNA expression of c-Fos and invasion-related protein MRNA expression. Quiescent SNB-19 cells were plated in fresh growth media either in the presence of 80 μM PD98059, a MEK/MAPKK inhibitor, or the absence of inhibitor, as a control. Induction was measured by observing MRNA expression over time (FIG. 6).\nQuiescent SNB-19 cells were growth induced by plating into fresh growth media for 2 and 6 hr. c-Fos expression was monitored by observing the mRNA levels of the downstream genes uPA, GNT-V, and c-ets-1 (see FIG. 8)."}, "[5]": {"system": "c-fos promoter/luciferase gene transfectant (clone 60) of SNB-19 glioma cells", "assay": "Luciferase mRNA expression in stable c-fos promoter/luciferase gene transfectant, Northern analysis", "assay_type": "cell-based, human", "conditions": "1, 2, 3, 6, and 24 hr in the presence of inhibitor", "procedure": "A quiescent c-fos promoter/luciferase gene transfectant (clone 60) was plated into fresh growth media and incubated for 1, 2, 3, 6, and 24 hr in the presence of MEK/MAPKK inhibitors, and the cells were harvested for detection of luciferase mRNA expression by Northern analysis. 10 μg of total RNA per lane were used.\nThe 498 bp promoter region of the human c-Fos gene was amplified by genomic PCR using sense primer 5′-[…]-3′ (SEQ ID No. 7) and antisense primer 5′-[…]-3′ (SEQ ID No. 8), ligated into the pCR II vector (Invitrogen, San Diego, Calif.). […] Antisense orientation of the c-fos promoter/pCR II plasmid was digested with Hind III and Xho I restriction enzymes and the digested fragment was ligated into the Hind III and Xho I sites of the luciferase vector pGL3-basic (Promega, Madison, Wis.). The c-fos promoter/pGL3 plasmid DNA was digested with Sma I and Xba I and the digested fragment was ligated into the Nru I and Xba I sites of the pcDNA 3 vector (Invitrogen). This final construct contains the luciferase gene under control of the c-fos promoter instead of the control of the CMV promoter. The plasmid DNA was stably transfected into human glioma SNB-19 cells using the cationic liposome system, DOTAP (Boehringer Mannheim, Indianapolis, Ind.). The transfected cells were further cultured for 3 weeks in selection medium containing 800 μg/ml of G418 and then individual clones were isolated with cloning rings. Isolated clones were further cultured for 4 weeks in selection medium and were examined for luciferase gene expression by Northern analysis. […] Three representative clones (34, 56, and 60) were further characterized.\nThe suppression of luciferase gene expression by inhibitors of MAPK pathway in the stable transfectants was determined."}, "[6]": {"system": "c-Fos protein in SNB-19 cells", "assay": "Growth-stimulated c-Fos protein induction, Western blot", "assay_type": "cell-based, human", "conditions": "50 μM U0126, 1 μM FTI, 50 μM PD98059; for c-Fos protein induction: 0.5-8 hr after plating", "procedure": "Quiescent SNB-19 cells were plated into fresh growth media and incubated for 0.5, 1, 2, 3, 4, 6, and 8 hr in the presence of inhibitors of the MAPK pathway, and the cells were harvested for c-Fos protein analysis by Western blot. 20 μg of total protein per lane were used. c-Fos protein induction without inhibitors was shown as a control.\nProcedure for Western Blot. To detect c-Ets-1 and c-Fos protein expression in brain tumor cell lines, 20 μg of protein cell lysates were loaded on a 8% SDS-polyacrylamide gel immediately after boiling each sample in the presence of 2% mercaptoethanol. After electrophoresis, proteins were transferred to a PVDF membrane and the membrane was blocked with 5% BSA in PBS. The membrane was then incubated with either a 1:10,000 dilution of monoclonal anti-human c-Ets-1 antibody (Clone 47, Transduction Laboratory, Ky.) or anti-human c-Fos antibody (Santa Cruz Biotechnology, Inc.) in Tris-buffered saline pH 7.4 (TBS) containing 2% BSA and 0.1% Tween 20 for 1 h at room temperature. The membrane was then washed with TBS containing 2% BSA and 0.1% Tween 20 for 10 min, followed by washing twice with 0.1% Tween 20 in TBS. Next, the membrane was incubated with a 1:10000 dilution of horseradish peroxidase-conjugated anti-mouse IgG (Amersham, UK) for 1 h at room temperature in 2% BSA in TBS containing 0.1% Tween 20. The membrane was then washed as described above, and developed with the ECL Chemiluminescence detection system (Amersham, UK) according to manufacturer's instructions."}, "[7]": {"system": "SNB-19 cells", "assay": "Suppression of PDBu-mediated mRNA induction by a MAPKK inhibitor, Northern analysis", "assay_type": "cell-based, human", "procedure": "as §1\nThe assay was modified for use in the identification of compounds that can inhibit gene expression. To identify compounds that may affect the growth, migration or invasivity of tumor cells, the assay described below is provided. To activate the quiescent cells, SNB-19 glioma cells are cultured in the presence of 150 nM Phorbol 12, 13-dibutyrate (PDBu, Sigma Chemical Co.) for 24 hr. The cells are then contacted with a test compound that may affect expression of GnT-V, c-ets-1, uPA, MMP-1, or MMP-3. Compounds shown to inhibit expression of any, multiple, or all of the sequences are selected for further study. […]"}, "[8]": {"system": "SNB-19 cells", "assay": "Induction of invasion-associated gene mRNA by phorbol ester, Northern analysis", "assay_type": "cell-based, human", "conditions": "150 nM PDBu, 24 hr incubation", "procedure": "as §1\nThe effects of a test compound, a phorbol ester (a Protein Kinase C (PKC) activator), on the coordinated expression of a panel of sequences was determined. SNB-19 cells were cultured in the presence of 150 nM phorbol 12, 13-dibutyrate (PDBu, Sigma Chemical Co.) for 24 hr. Expression of GnT-V, c-ets-1, uPA, MMP-1, and MMP-3 mRNA was then assayed by northern blot on total RNA from the cells. A panel of nucleic acid probes corresponding to GnT-V, c-ets-1, uPA, MMP-1, and MMP-3 were prepared as described above and utilized to detect expression of the corresponding mRNA in treated or untreated SNB-19 cells. […]"}},
  "note": "“Also recorded” adds a separate entry of the source.",
  "data": [
    {"smiles": "N#CC(=C(/N)Sc1ccccc1N)/C(C#N)=C(\\N)Sc1ccccc1N", "note": "[U0126]", "values": [
      {"measurement": "adhesion-mediated protein tyrosine phosphorylation", "setting": "[1]", "value": "little effect"},
      {"measurement": "phosphorylation of p42/p44 ERK/MAPK", "setting": "[2]", "value": "completely inhibited"},
      {"measurement": "potency as MEK/MAPKK inhibitor relative to PD98059", "setting": "[3]", "value": 30, "unit": "times"},
      {"measurement": "growth-stimulated induction of GnT-V, uPA and c-ets-1 mRNA expression", "setting": "[4]; 50 μM U0126, 0.5-8 hr after plating into fresh growth media", "value": "strongly suppressed; also recorded: suppressed the induction"},
      {"measurement": "luciferase mRNA expression", "setting": "[5]", "value": "greatly suppressed; also recorded: greater inhibition"},
      {"measurement": "potency of inhibition of c-Fos protein induction (rank order)", "setting": "[6]", "value": "50 μM U0126>1 μM FTI>50 μM PD98059"},
      {"measurement": "c-Fos protein induction", "setting": "[6]", "value": "completely inhibited"}
    ]},
    {"smiles": "COc1cccc(-c2cc(=O)c3ccccc3o2)c1N", "note": "[PD98059, 2′-amino-3′-methoxyflavone]", "values": [
      {"measurement": "growth-stimulated induction of c-fos, c-ets-1, GnT-V, and uPA mRNA expression", "setting": "[4]; 80 μM PD98059, 0.5-8 hr after plating into fresh growth media", "value": "suppression; also recorded: suppressed"},
      {"measurement": "PDBu-induced GnT-V, c-ets-1, MMP-1, and MMP-3 mRNA induction (b19 also uPA)", "setting": "[7]; 150 nM PDBu 24 hr, 15 and 80 μM PD98059, 15 μM", "value": "completely abolished"},
      {"measurement": "uPA mRNA expression in PDBu-stimulated cells", "setting": "[7]; 150 nM PDBu, PD98059 15 and 80 μM", "value": "decreased in a dose-dependent manner"},
      {"measurement": "luciferase mRNA expression", "setting": "[5]", "value": "slightly suppressed"},
      {"measurement": "luciferase mRNA expression", "setting": "[5]; listed as PD98056", "value": "suppress"},
      {"measurement": "potency of inhibition of c-Fos protein induction (rank order)", "setting": "[6]", "value": "50 μM U0126>1 μM FTI>50 μM PD98059"},
      {"measurement": "c-Fos protein induction", "setting": "[6]", "value": "weak suppression"}
    ]},
    {"smiles": "COc1cc2ncnc(Nc3cccc(Br)c3)c2cc1OC", "note": "[PD153035]", "values": [
      {"measurement": "effect on expression of uPA, GnT-V and c-ets-1 mRNA induced by growth stimulation", "setting": "[4]", "value": "no effect"}
    ]},
    {"smiles": "CCCC(=O)O[C@@H]1[C@@H](C)[C@@]2(O)[C@@H](C=C(CO)C[C@]3(O)C(=O)C(C)=C[C@@H]23)[C@@H]2C(C)(C)[C@]12OC(=O)CCC", "note": "[PDBu, Phorbol 12, 13-dibutyrate]", "values": [
      {"measurement": "induction of GnT-V, c-ets-1, uPA, MMP-1, and MMP-3 mRNA expression", "setting": "[8]", "value": "marked induction; also recorded: induced"}
    ]},
    {"smiles": "COC[C@H]1OC(=O)c2coc3c2[C@@]1(C)C1=C(C3=O)[C@@H]2CCC(=O)[C@@]2(C)C[C@H]1OC(C)=O", "note": "[Wortmannin]", "values": [
      {"measurement": "effect on expression of uPA, GnT-V and c-ets-1 mRNA induced by growth stimulation", "setting": "[4]", "value": "no effect"}
    ]}
  ]
}
